The test system of the series is HEK293T cells overexpressing full-length HOIP, HOIL-1L, and SHARPIN. As to the kind of experiment: CellTiter-Glo Luminescent cell viability assay, transfected cells. The settings on record: 17 h. Type of series: cell-based. The protocol:
Thurston, Imperial College London. 2.3 × 10^6 cells were seeded into 100 mm Petri dishes in DMEM media supplemented with 10% v/v FBS (Biosera) and 1% v/v L-glutamine/penicillin/streptomycin (Sigma-Aldrich) and incubated at 37 °C overnight. The following morning the cells were transfected using either 6 µg pcDNA3 or 4.5 µg HOIP, 0.3 µg HOIL-1L and 1.2 µg SHARPIN as well as 450 ng pRDII Luc and 180 ng pRLTK (Promega) plasmids. 7 h after transfection, the cells were trypsinized and re-suspended in DMEM media supplemented with 1% v/v FBS (Biosera) and 1% v/v L-glutamine/penicillin/streptomycin (Sigma-Aldrich). […]
Reporter assays: After incubating the plates for 17 h, Firefly and Renilla Luciferase activity was analyzed using the Dual-Luciferase® Reporter Assay System (Promega) and a BertholdTech […]
with Mikrowin 2000 software version 4.41: using its injectors to inject 100 µL LAR II and 100 µL Stop&Glo (see manufacturer’s instructions; Promega #E1960). NF-κB regulated luciferase activity was first normalized to Renilla luciferase activity and then the fold activation relative to cells transfected with empty vector calculated. […]
Cell viability assays: After incubating the plates for 17 h in the presence of compound, cell viability was determined using the CellTiter-Glo® Luminescent Cell Viability Assay according to manufacturer’s instructions (Promega #G7571). […]
Background: Cellular ATP, detected with luciferase, serves as a proxy for viable cell number.

`COC(=O)/C=C/CNC(=O)c1cc2c([nH]c1=O)CCCC2` [Compound 11a]: the “effect on cell viability” value is “neither compound had any effect on cell viability”.

The values are drawn from publication PMC6383986, “Fragment-Based Covalent Ligand Screening Enables Rapid Discovery of Inhibitors for the RBR E3 Ubiquitin Ligase HOIP” (Journal of the American Chemical Society, 2019).
